Measurements published in ChEMBL document CHEMBL1155947, “Discovery of a novel series of benzoic acid derivatives as potent and selective human beta3 adrenergic receptor agonists with good oral bioavailability. 3. Phenylethanolaminotetraline (PEAT) skeleton containing biphenyl or biphenyl ether moiety” (J Med Chem, 2008).

Assays:
[1] = target: Beta-3 adrenergic receptor (Homo sapiens, UniProt P13945); assay: Agonist activity at human cloned beta3 adrenergic receptor expressed in CHO cells assessed as cAMP accumulation; type: functional, cell-based
[2] = target: Beta-2 adrenergic receptor (Homo sapiens, UniProt P07550); assay: Agonist activity at human beta2 adrenergic receptor expressed in CHO cells assessed as cAMP accumulation; type: functional, cell-based
[3] = target: Beta-1 adrenergic receptor (Homo sapiens, UniProt P08588)
Description: Agonist activity at human cloned beta-1 adrenergic receptor expressed in CHO cells assessed as cAMP accumulation

Homo sapiens = species: Homo sapiens; assay: Ratio of EC50 for human cloned beta-1 adrenergic receptor to EC50 for human cloned beta3 adrenergic receptor
[4] = Total clearance in rat at 0.50 mg/kg, iv by cassette assay; type: ADME, organism-based; design: dose 0.5 mg/kg, route intravenous; details: in vivo, 0.5 mg/kg
[5] = AUC (0 to 24 hrs) in dog at 0.2 mg/kg, po by cassette assay; type: ADME, organism-based, Canis lupus familiaris; design: time < 24 hr, dose 0.2 mg/kg, route oral; details: plasma
[6] = Protein binding in Beagle dog serum at 32 ug/kg, iv; type: ADME, organism-based, Canis lupus familiaris; details: 0.032 mg/kg, read-out: PB (converted)
[7] = Total clearance in dog at 0.1 mg/kg, iv by cassette assay; type: ADME, organism-based, Canis lupus familiaris; design: dose 0.1 mg/kg, route intravenous; details: in vivo
[8] = AUC (0 to 24 hrs) in rat at 0.5 mg/kg, po by cassette assay; type: ADME, organism-based; design: time < 24 hr, dose 0.5 mg/kg, route oral; details: plasma
Canis familiaris [9] = assay: Ratio of AUC for drug to AUC for 4-((7S)-7-{[(2R)-2-(3-Chlorophenyl)-2-hydroxyethyl]amino}-5,6,7,8-tetrahydro-2-naphthalenyl)benzoic acid hydrochloride in dog at 0.1 or 0.20 mg/kg, po by cassette dosing assay; type: ADME, organism-based, Canis lupus familiaris; design: dose 0.2 mg/kg, route oral; details: in vivo, 0.2 mg/kg
[10] = Cmax in dog at 0.2 mg/kg, po by cassette assay; type: ADME, organism-based, Canis lupus familiaris; design: dose 0.2 mg/kg, route oral; details: in vivo
[11] = Oral bioavailability in dog at 0.1 mg/kg by cassette assay; type: ADME, organism-based, Canis lupus familiaris; details: in vivo
[12] = AUC (0 to 24 hrs) in monkey at 0.32 mg/kg, po; type: ADME, organism-based, Macaca mulatta; design: time < 24 hr, dose 0.32 mg/kg, route oral; details: rhesus monkey, plasma
[13] = Selectivity for human beta3 adrenergic receptor over dog beta3 adrenergic receptor
[14] = Terminal half life in rat at 0.50 mg/kg, iv by cassette assay; type: ADME, organism-based; design: dose 0.5 mg/kg, route intravenous; details: in vivo, 0.5 mg/kg
[15] = Terminal half life in dog at 0.1 mg/kg, iv by cassette assay; type: ADME, organism-based, Canis lupus familiaris; design: dose 0.1 mg/kg, route intravenous; details: in vivo
Canis familiaris [16] = assay: Inhibition of carbachol-induced increase of intravesical pressure in Beagle dog OAB model at 32 ug/kg,; type: functional; details: Canis lupus familiaris
[17] = Cmax in monkey at 0.32 mg/kg, po; type: ADME, organism-based, Macaca mulatta; design: dose 0.32 mg/kg, route oral; details: rhesus monkey, in vivo
[18] = Terminal half life in monkey at 0.32 mg/kg, iv by cassette assay; type: ADME, organism-based, Macaca mulatta; design: dose 0.32 mg/kg, route intravenous; details: rhesus monkey, in vivo
[19] = Oral bioavailability in monkey at 0.32 mg/kg by cassette assay; type: ADME, organism-based, Macaca mulatta; details: rhesus monkey, in vivo
[20] = Oral bioavailability in rat at 0.50 mg/kg by cassette assay; type: ADME, organism-based; details: in vivo, 0.5 mg/kg
[21] = Total clearance in monkey at 0.32 mg/kg, iv by cassette assay; type: ADME, organism-based, Macaca mulatta; design: dose 0.32 mg/kg, route intravenous; details: rhesus monkey, in vivo
[22] = Cmax in rat at 0.5 mg/kg, po by cassette assay; type: ADME, organism-based; design: dose 0.5 mg/kg, route oral; details: in vivo
Canis familiaris [23] = assay: Ratio of Cmax for drug to Cmax for 4-((7S)-7-{[(2R)-2-(3-Chlorophenyl)-2-hydroxyethyl]amino}-5,6,7,8-tetrahydro-2-naphthalenyl)benzoic acid hydrochloride in dog at 0.1 or 0.20 mg/kg, po by cassette dosing assay; type: ADME, organism-based, Canis lupus familiaris; design: dose 0.2 mg/kg, route oral; details: in vivo, 0.2 mg/kg
[24] = target: Beta-3 adrenergic receptor (Canis lupus familiaris, UniProt O02662); assay: Agonist activity at dog beta3 adrenergic receptor expressed in CHO cells assessed as cAMP accumulation; type: functional, cell-based
Canis familiaris [25] = assay: Ratio of Cmax for drug to Cmax for 3-[((7S)-7-{[(2R)-2-(3-Chlorophenyl)-2-hydroxyethyl]amino}-5,6,7,8-tetrahydro-2-naphthalenyl)oxy]benzoic acid hydrochloride in dog at 0.1 or 0.20 mg/kg, po by cassette dosing assay; type: ADME, organism-based, Canis lupus familiaris; design: dose 0.2 mg/kg, route oral; details: in vivo, 0.2 mg/kg
Canis familiaris [26] = assay: Ratio of AUC for drug to AUC for 3-[((7S)-7-{[(2R)-2-(3-Chlorophenyl)-2-hydroxyethyl]amino}-5,6,7,8-tetrahydro-2-naphthalenyl)oxy]benzoic acid hydrochloride in dog at 0.1 or 0.20 mg/kg, po by cassette dosing assay; type: ADME, organism-based, Canis lupus familiaris; design: dose 0.2 mg/kg, route oral; details: in vivo, 0.2 mg/kg
[27] = AUC (0 to 24 hrs) in rat at 0.52 mg/kg, po by cassette assay; type: ADME, organism-based; design: time < 24 hr, dose 0.52 mg/kg, route oral; details: plasma
[28] = Cmax in rat at 0.52 mg/kg, po by cassette assay; type: ADME, organism-based; design: dose 0.52 mg/kg, route oral; details: in vivo
[29] = Cmax in monkey at 1.0 mg/kg, po by cassette assay; type: ADME, organism-based, Macaca mulatta; design: dose 1 mg/kg, route oral; details: rhesus monkey, in vivo
[30] = Cmax in dog at 0.21 mg/kg, po by cassette assay; type: ADME, organism-based, Canis lupus familiaris; design: dose 0.21 mg/kg, route oral; details: in vivo
[31] = AUC (0 to 24 hrs) in monkey at 1.0 mg/kg, po by cassette assay; type: ADME, organism-based, Macaca mulatta; design: time < 24 hr, dose 1 mg/kg, route oral; details: rhesus monkey, plasma
[32] = AUC (0 to 24 hrs) in dog at 0.21 mg/kg, po by cassette assay; type: ADME, organism-based, Canis lupus familiaris; design: time < 24 hr, dose 0.21 mg/kg, route oral; details: plasma
[33] = Terminal half life in dog at 0.1 mg/mL, iv by cassette assay; type: ADME, organism-based, Canis lupus familiaris; details: in vivo
[34] = Total clearance in dog at 0.1 mg/mL, iv by cassette assay; type: ADME, organism-based, Canis lupus familiaris; details: in vivo
[35] = Bioavailability in dog at 0.1 mg/mL, iv by cassette assay; type: ADME, organism-based, Canis lupus familiaris; details: in vivo

Sequence of Beta-3 adrenergic receptor (Homo sapiens, UniProt P13945) (P13945 whole entry): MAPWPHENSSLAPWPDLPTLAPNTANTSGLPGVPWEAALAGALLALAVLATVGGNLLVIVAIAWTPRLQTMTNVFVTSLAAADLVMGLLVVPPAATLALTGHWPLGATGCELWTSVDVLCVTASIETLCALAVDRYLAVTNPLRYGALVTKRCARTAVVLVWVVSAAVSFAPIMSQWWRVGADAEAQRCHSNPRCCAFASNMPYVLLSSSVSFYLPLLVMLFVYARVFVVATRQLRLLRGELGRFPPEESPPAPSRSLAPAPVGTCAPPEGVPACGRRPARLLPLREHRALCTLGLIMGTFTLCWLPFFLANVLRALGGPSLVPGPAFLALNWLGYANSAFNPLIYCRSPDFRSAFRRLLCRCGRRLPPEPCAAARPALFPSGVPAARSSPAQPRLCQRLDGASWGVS
Sequence of Beta-2 adrenergic receptor (P07550 whole entry): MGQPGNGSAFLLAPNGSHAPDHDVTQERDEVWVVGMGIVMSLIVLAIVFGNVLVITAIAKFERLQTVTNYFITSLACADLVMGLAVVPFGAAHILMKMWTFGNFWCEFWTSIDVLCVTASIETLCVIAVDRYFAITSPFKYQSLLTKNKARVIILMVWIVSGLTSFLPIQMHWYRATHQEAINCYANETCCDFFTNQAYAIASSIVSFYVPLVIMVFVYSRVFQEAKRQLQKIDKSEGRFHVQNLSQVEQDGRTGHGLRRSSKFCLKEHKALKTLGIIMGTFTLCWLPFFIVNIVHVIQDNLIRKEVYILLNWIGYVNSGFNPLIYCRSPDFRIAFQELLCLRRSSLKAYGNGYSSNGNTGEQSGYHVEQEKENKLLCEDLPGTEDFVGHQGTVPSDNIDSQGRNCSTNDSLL
Sequence of Beta-1 adrenergic receptor (P08588 whole entry): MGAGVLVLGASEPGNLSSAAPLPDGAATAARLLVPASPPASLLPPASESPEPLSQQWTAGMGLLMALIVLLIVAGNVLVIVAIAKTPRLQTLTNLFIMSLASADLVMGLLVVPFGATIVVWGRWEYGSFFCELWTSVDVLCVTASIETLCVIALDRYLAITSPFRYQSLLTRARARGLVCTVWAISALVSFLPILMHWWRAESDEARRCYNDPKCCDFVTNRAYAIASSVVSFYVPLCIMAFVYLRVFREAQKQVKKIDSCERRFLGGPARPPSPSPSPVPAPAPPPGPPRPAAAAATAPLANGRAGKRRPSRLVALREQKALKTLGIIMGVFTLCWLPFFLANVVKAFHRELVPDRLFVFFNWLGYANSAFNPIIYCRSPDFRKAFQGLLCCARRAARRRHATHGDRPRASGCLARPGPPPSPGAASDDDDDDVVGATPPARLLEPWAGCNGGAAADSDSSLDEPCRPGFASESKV
Sequence of Beta-3 adrenergic receptor (Canis lupus familiaris, UniProt O02662) (O02662 whole entry): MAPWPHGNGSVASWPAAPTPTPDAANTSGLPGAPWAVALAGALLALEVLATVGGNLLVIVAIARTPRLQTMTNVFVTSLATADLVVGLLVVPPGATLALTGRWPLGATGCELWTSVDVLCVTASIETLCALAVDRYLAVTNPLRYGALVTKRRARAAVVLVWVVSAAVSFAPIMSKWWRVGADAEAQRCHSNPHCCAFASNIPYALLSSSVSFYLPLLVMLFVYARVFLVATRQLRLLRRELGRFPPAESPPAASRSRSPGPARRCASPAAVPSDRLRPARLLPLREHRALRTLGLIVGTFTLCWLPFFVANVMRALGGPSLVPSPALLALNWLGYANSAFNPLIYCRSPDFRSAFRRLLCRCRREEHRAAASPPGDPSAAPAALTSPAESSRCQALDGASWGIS

EC50 [1] [µM] | EC50 [2] [µM] | EC50 [3] [µM] | Ratio EC50 (Homo sapiens) | AUC(0-t) at 24 h [5] [µg·h/mL] | Ratio AUC (Canis familiaris [9]) | Cmax [10] [µg/mL] | Ratio (Canis familiaris [23]) | Ratio (Canis familiaris [25]) | Ratio AUC (Canis familiaris [26]) | SMILES | further results
0.00038 | > 1 | 0.917 | 2410 | 1.98 | 1.25 | 0.113 | 0.71 |  |  | O=C(O)c1ccc(-c2ccc3c(c2)C[C@@H](NC[C@H](O)c2ccc(Cl)cc2)CC3)cc1 | clearance [4]: 0.684 L/h/kg; fraction unbound [6]: 0.03; clearance [7]: 0.102 L/h/kg; AUC(0-t) at 24 h [8]: 0.47 µg·h/mL; bioavailability [11]: > 95%; AUC(0-t) at 24 h [12]: 0.722 µg·h/mL; Selectivity ratio [13]: 65.8; half-life [14]: 13.6 h; half-life [15]: 14.3 h; inhibition in vivo at 0.032 mg/kg (Canis familiaris [16]): 33%; Cmax [17]: 0.0912 µg/mL; half-life [18]: 7.7 h; bioavailability [19]: 81.7%; bioavailability [20]: 63.4%; clearance [21]: 0.402 L/h/kg; Cmax [22]: 0.065 µg/mL; EC50 [24]: 0.025 µM
0.02 |  | > 0.1 | > 5 |  |  |  |  | 0.5 | 0.32 | O=C(O)c1cccc(Oc2ccc3c(c2)C[C@@H](NC[C@H](O)c2cccnc2)CC3)c1 | 
0.0032 |  | 0.48 | 150 |  |  |  |  | 0.26 | 0.2 | Nc1cc(Oc2ccc3c(c2)C[C@@H](NC[C@H](O)c2cccc(Cl)c2)CC3)cc(C(=O)O)c1 | 
0.0047 | > 1 | > 1 | > 217 |  |  |  |  | 0.64 | 0.76 | COc1ccc(Oc2ccc3c(c2)C[C@@H](NC[C@H](O)c2ccc(Cl)cc2)CC3)cc1C(=O)O | clearance [4]: 0.12 L/h/kg; clearance [7]: 0.084 L/h/kg; AUC(0-t) at 24 h [27]: 4.58 µg·h/mL; Cmax [28]: 0.367 µg/mL; bioavailability [11]: 64.2%; half-life [14]: 11.9 h; half-life [15]: 8.3 h; Cmax [29]: 0.319 µg/mL; Cmax [30]: 0.103 µg/mL; half-life [18]: 6.7 h; bioavailability [19]: 48%; bioavailability [20]: > 95%; clearance [21]: 0.318 L/h/kg; AUC(0-t) at 24 h [31]: 1.56 µg·h/mL; AUC(0-t) at 24 h [32]: 1.53 µg·h/mL
0.0058 | > 1 | > 1 | > 170 | 0.197 |  | 0.0218 |  |  |  | O=C(O)COc1ccc(-c2ccc3c(c2)C[C@@H](NC[C@H](O)c2cccc(Cl)c2)CC3)cc1 | half-life [33]: 1.9 h; clearance [34]: 0.498 L/h/kg; bioavailability [35]: 48%
0.0014 |  | 0.98 | 700 |  | 1.01 |  | 1.13 |  |  | O=C(O)c1ccc(-c2ccc3c(c2)C[C@@H](NC[C@H](O)c2ccc(Cl)cc2)CC3)c(F)c1 | 
0.0028 | > 1 | > 1 | > 357 | 1.98 | 1 | 0.0974 | 1 |  |  | O=C(O)c1ccc(-c2ccc3c(c2)C[C@@H](NC[C@H](O)c2cccc(Cl)c2)CC3)cc1 | half-life [33]: 12.2 h; clearance [34]: 0.072 L/h/kg; bioavailability [35]: 71%
0.0032 | > 1 | > 1 | > 312 | 1.47 |  | 0.189 |  | 1.18 | 0.83 | CN(C)c1cc(Oc2ccc3c(c2)C[C@@H](NC[C@H](O)c2cccc(Cl)c2)CC3)cc(C(=O)O)c1 | clearance [7]: 0.143 L/h/kg; bioavailability [11]: > 95%; half-life [15]: 3.94 h
0.00079 |  | > 1 | > 1260 |  | 0.77 |  | 1.06 |  |  | Cc1ccc([C@@H](O)CN[C@H]2CCc3ccc(-c4ccc(C(=O)O)cc4)cc3C2)cc1 | 
0.00078 |  | > 1 | > 1280 |  | 0.53 |  | 0.62 |  |  | COc1cc(-c2ccc3c(c2)C[C@@H](NC[C@H](O)c2ccc(Cl)cc2)CC3)ccc1C(=O)O | 

SMILES | EC50 [1] [µM] | EC50 [2] [µM] | EC50 [3] [µM] | Ratio EC50 (Homo sapiens) | AUC(0-t) at 24 h [5] [µg·h/mL] | Ratio AUC (Canis familiaris [9]) | Cmax [10] [µg/mL] | Ratio (Canis familiaris [23]) | Ratio (Canis familiaris [25]) | Ratio AUC (Canis familiaris [26]) | further results
O=C(O)c1ccc(Oc2ccc3c(c2)C[C@@H](NC[C@H](O)c2cccc(Cl)c2)CC3)s1 | 0.0057 | > 1 | 0.67 | 117 |  |  |  |  |  |  | 
